# Assay results taken from patent US20260217699A1, “BERBERINE TAUROURSODEOXYCHOLATE COMPOSITIONS AND METHODS THEREOF” (SHENZHEN HIGHTIDE BIOPHARMACEUTICAL LTD., priority 2023, published 2026).
# What was measured:
# Assay type in all cases: in vivo, Sprague-Dawley rats
# [1] = tested on: 6-OHDA Stereotactic Injection Induced PD Rats; test: Apomorphine-asymmetric rotation test
# Text: (§1) The rats were respiratory anesthetized with isoflurane; the head was fixed to ensure that there was no movement and the brain surface was adjusted to be flat; the head was shaved, and a skin incision was made along the sagittal suture to expose the fontanel point; the glass electrode was positioned to the fontanel, and the axes of the coordinate monitor were zeroed to locate the brain areas of the SN and the Str based on the coordinates, in which the SN: AP=−5.0 mm; ML=−1.9 mm; DV=−8.5 mm, and Str: AP=+0.5 mm; ML=−3.0 mm; DV=−6.0 mm. […]; slowly inserted the needle into the localized area of SN and Str, waited for 10 min, and then administered the drug of 6-OHDA at a rate of […] for 10 min, and each animal was given […] of each of SN and Str area, and then the needle was slowly withdrawn after the drug was administered for 10 min, and the PD rat model was established.
# The animals were tested three weeks post-administration. 0.5 mg/kg of apomorphine was injected intraperitoneally. The number of rotations of each rat in 30 min were recorded, and the rat appeared to rotate in place toward the opposite side of the injury using the rotating forelimb as a support point. […]
# (§2) Experimental Methods: Seventy 180-220g SD male rats were selected and fed for one week for accumulation, and the PD model was established by stereotactic unilateral injection of 6-OHDA in the Substantia Nigra (SN) and Striatum (Str) regions and were randomly divided into five groups according to their body weights including Madopar group (Madopar, 50 mg/kg), BTUDC-L group (BTUDC, 100 mg/kg), BTUDC-M group (BTUDC, 500 mg/kg), and BTUDC-H group (BTUDC, 1000 mg/kg), with 10 animals in each group. […] At the end of the administration, the test articles were evaluated for tolerance in this model and in behavioral apomorphine—asymmetric rotation test, beam test, rotarod test and grip strength test, immunofluorescence staining (TH, Ibal), and cerebrospinal fluid inflammatory factor assays to evaluate the pharmacodynamic effects of the test articles. […]
# [2] = tested on: 6-OHDA Stereotactic Injection Induced PD Rats; test: Rotarod test; conditions: for Time on the Rod: Mean ± SEM, N=10, Model 63.250 ± 9.871
# Text: as §1
# The rotation speed of the rotary rod fatigue meter was set to 20 rpm/min with the test time of 5 min. The animals were placed on the rotating rod in batches for testing, and the time each animal spent on the rod was recorded to evaluate the motor coordination ability of the rats. Information on the rotarod test can also be found in the literature (Bohlen, et al. 2009 J Neurosci Methods 178(1):10-4).
# In this study, 16 Sprague Dawley (SD) male rats 180g-220g were used to establish a PD model by stereotactic unilateral injection of 6-OHDA in the substantia nigra (SN) and striatum (Str) brain areas after one week of acclimatization feeding and were randomly divided into 2 groups of 8 rats each. One group was dosed with the test compound BTUDC 500 mg/kg (QD, p.o.) and the other group was the Model group, which was given an equal volume of 0.5% CMC-Na (QD, p.o.) as the test compound group. […]
# as §2
# [3] = tested on: microglia (Iba-1) positive cells; test: Immunofluorescence staining of Iba-1 in Str and SN brain regions; conditions: Mean ± SEM, N=15; for Iba-1 staining SN positive cells num.: Model 397.8 ± 21.2; for Iba-1 staining Str positive cells num.: Model 668.3 ± 13.0
# Method: After the rat was anesthetized, the abdominal cavity and thorax were cut open with straight scissors to expose the heart. The blood was first flushed out with normal saline perfusion, and then paraformaldehyde was used for initial perfusion fixation. The head was cut off, and the brain case was carefully opened with tweezers, and the brain tissue was removed and placed in paraformaldehyde solution and fix for 24 h; on the second day, took out the brain tissue and placed in 20% sucrose solution for 24 h; on the third day, took out the brain tissue and placed in 30% sucrose solution for 24 h; on the fourth day, took out the brain tissue and placed in 35% sucrose solution for 24 h (increase the time or concentration appropriately according to the condition of sugar deposition in the brain tissues); took out the brain tissue, embedded it in OCT embedding agent, and cut brain slices at the thickness of […] with a freezing microtome.
# Immunohistochemical staining of TH and Iba-1 was performed on the sections. Sections were rewarmed for 30 min, closed at room temperature for 1 h with 50% serum+0.3% TritonX-100 in 50 μL per slice, shook off the slices, added primary antibody (diluted in PBS), overnight at 4° C.; rewarmed for 30 min; washed off primary antibody (PBS), 5 min×3 times; added secondary antibody (diluted in PBS) by backlighting, room temperature for 2 h; washed off secondary antibody (PBS), 5minx 3 times; added (4′,6-diamidino-2-phenylindole) (DAPI), and stayed at room temperature for 10 min; washed off DAPI, 5 min×3 times; added 70% glycerol to seal the slices to avoid air bubbles. Observed and took pictures under a microscope. Selected basically the same target brain area for each slice. Afterwards, ImageJ was used to count the signal number or area of the entire slice.
# Experimental Methods: Seventy 180-220g SD male rats were selected and fed for one week for accumulation, and the PD model was established by stereotactic unilateral injection of 6-OHDA in the Substantia Nigra (SN) and Striatum (Str) regions and were randomly divided into five groups according to their body weights including Madopar group (Madopar, 50 mg/kg), BTUDC-L group (BTUDC, 100 mg/kg), BTUDC-M group (BTUDC, 500 mg/kg), and BTUDC-H group (BTUDC, 1000 mg/kg), with 10 animals in each group. Another 10 SD male rats were taken for sham operation (only 4 μL of 0.9% NS containing 0.02% ascorbic acid was given to the SN and Str brain regions during modeling) as the Sham group. The drug was administered by gavage once daily continuously for 21 days starting on the second day of modeling (first day of dosing, D1). General observation was made during the dosing period. At the end of the administration, the test articles were evaluated for tolerance in this model and in behavioral apomorphine—asymmetric rotation test, beam test, rotarod test and grip strength test, immunofluorescence staining (TH, Ibal), and cerebrospinal fluid inflammatory factor assays to evaluate the pharmacodynamic effects of the test articles. Inflammatory factors tested included interleukin 6 (1L-6), inflammatory factor […], Tumor Necrosis Factor alpha (TNF-α), inflammatory assays were done in a total of 4 groups included Sham, Model, Madopar and BTUDC-H groups.
# Dosing volume: 10 mL/kg • 1. General observation: During the period of drug administration, body weight, food intake test and cage side observation were conducted every 3 days. • 2. Behavioral test: After 21 days of administration, behavioral test was carried out on the following day. • 3. […]
# [4] = BTUDC-H 1000 mg/kg p.o. Qd 21 days, p<0.001 vs Model
# [5] = BTUDC-L 100 mg/kg p.o. Qd 21 days, no significance mark
compound,measurement,setting,value
"COc1ccc2cc3[n+](cc2c1OC)CCc1cc2c(cc1-3)OCO2.C[C@H](CCC(=O)NCCS(=O)(=O)[O-])[C@H]1CC[C@H]2[C@@H]3[C@@H](O)C[C@@H]4C[C@H](O)CC[C@]4(C)[C@H]3CC[C@]12C [BTUDC, Berberine tauroursodeoxycholate]",difference in number of ipsilateral rotations within 30 minutes vs Model group,"[1]; 500 mg/kg QD p.o. 21 days, p>0.05",no statistically significant difference
same,number of rotational circles within 30 min of apomorphine injection vs Model group,[1]; BTUDC-H 1000 mg/kg p.o. Qd 21 days,significantly lower
same,Number of Ipsilateral Rotation,"[1]; within 30 minutes of apomorphine injection, 500 mg/kg/day p.o. 21 days, 8 rats, Model 126.380 ± 31.681",109.000 ± 23.670
same,Rotarod Test Rod time,"[2]; 500 mg/kg QD p.o. 21 days, Model 44.063 ± 4.6049, P < 0.001 vs Model",252.413 ± 14.4032 s
same,Time on the Rod,[2]; [4],172.625 ± 17.355 s
same,Time on the Rod,[2]; [5],103.220 ± 5.806 s
same,Time on the Rod,"[2]; BTUDC-M 500 mg/kg p.o. Qd 21 days, p<0.001 vs Model",148.070 ± 21.760 s
same,Iba-1 staining SN positive cells num.,[3]; [4],270.0 ± 21.5
same,Iba-1 staining Str positive cells num.,[3]; [4],556.5 ± 16.2
same,Iba-1 staining SN positive cells num.,[3]; [5],413.7 ± 42.8
same,Iba-1 staining Str positive cells num.,"[3]; BTUDC-L 100 mg/kg p.o. Qd 21 days, p<0.01 vs Model",601.7 ± 14.2
same,Iba-1 staining SN positive cells num.,"[3]; BTUDC-M 500 mg/kg p.o. Qd 21 days, no significance mark",393.1 ± 20.1
same,Iba-1 staining Str positive cells num.,"[3]; BTUDC-M 500 mg/kg p.o. Qd 21 days, p<0.01 vs Model",602.7 ± 9.1
